Test results taken from patent US11000033B2, “Ketone or oxime compound, and herbicide” (NISSAN CHEMICAL CORPORATION, priority 2014, dated 2021).

What was measured:
Type in all cases: in vivo
[1] = test system: directly sowed rice plant; experiment: Test Example 3: effect on crop by foliage application, Wagner pot (symbol b); conditions: application herbicide amount 320 g/ha
Summary of the method: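 Steps: fill a 1/10000-are Wagner pot with alluvial soil; add water and mix to submerge at 0.1–0.5 cm depth; sow rice plus Echinochloa crus-galli var. crus-galli, Leptochloa chinensis and Cyperus difformis; grow in a 25–30 °C greenhouse.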

Stellaria media = experiment: Test Example 4: herbicidal effect by soil treatment (symbol P); conditions: for P (Stellaria media) herbicidal effect grade: application herbicide amount 320 g/ha
Summary of the method: (§1)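 Seeds were sown in sterilized diluvial soil, covered with about 1.5 cm of soil, and the soil surface was sprayed with a water-diluted emulsion of the compound at a predetermined rate. Plants grew in a greenhouse at 25° C. to 30° C.; effects were scored visually 3 weeks after application.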

soybean = experiment: Test Example 5: effect on crop by foliage application, plastic box (symbol d); conditions: 320 g/ha, 3 weeks after application
Summary of the method: (§2)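 Plants were raised from seed in a greenhouse (25° C. to 30° C.) after sowing in a plastic box of sterilized diluvial soil.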

Alopecurus myosuroides = experiment: Test Example 4: herbicidal effect by soil treatment (symbol J); conditions: for J (Alopecurus myosuroides) herbicidal effect grade: application herbicide amount 320 g/ha
Summary of the method: as §1

[2] = test system: Echinochloa crus-galli var. crus-galli; experiment: Test Example 5: herbicidal effect by foliage application, plastic box (symbol H); conditions: 320 g/ha, 3 weeks after application
Summary of the method: (§3)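 Emulsion formulation, diluted with water to the intended rate, was applied uniformly to leaves by small sprayer. Recipients were 14-day greenhouse-grown seedlings (25° C. to 30° C.). Assessment followed at 3 weeks.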

Monochoria vaginalis = experiment: Test Example 1: herbicidal activity, application before weed generation in submerged conditions (symbol C); conditions: application herbicide amount 320 g/ha
Summary of the method: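 Greenhouse growth at 25–30 °C lasted 3 weeks after treatment, when each weed was graded 0–5 by herbicidal ratio. Treatment was a diluted emulsion applied to the water surface of 4 cm-submerged alluvial soil on the sowing day.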

Apera spica-venti = experiment: Test Example 4: herbicidal effect by soil treatment (symbol L); conditions: for L (Apera spica-venti) herbicidal effect grade: application herbicide amount 320 g/ha
Summary of the method: as §1

Abutilon theophrasti = experiment: Test Example 5: herbicidal effect by foliage application, plastic box (symbol M); conditions: 320 g/ha, 3 weeks after application
Summary of the method: as §3

corn = experiment: Test Example 4: effect on crop by soil treatment (symbol c); conditions: for c (corn) effect on crop grade: application herbicide amount 320 g/ha
Summary of the method: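 Crop seed is sown in spots together with several weed species in a box of sterilized diluvial soil. It is covered by about 1.5 cm of soil and kept in a greenhouse held between 25° C. and 30° C.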

Veronica persica = experiment: Test Example 5: herbicidal effect by foliage application, plastic box (symbol R); conditions: 320 g/ha, 3 weeks after application
Summary of the method: as §3

wheat = experiment: Test Example 5: effect on crop by foliage application, plastic box (symbol e); conditions: 320 g/ha, 3 weeks after application
Summary of the method: as §2

Lolium multiflorum Lam. = experiment: Test Example 4: herbicidal effect by soil treatment (symbol K); conditions: for K (Lolium multiflorum Lam.) herbicidal effect grade: application herbicide amount 320 g/ha
Summary of the method: as §1

[3] = test system: Echinochloa crus-galli var. crus-galli; experiment: Test Example 3: herbicidal effect by foliage application, Wagner pot (symbol H); conditions: application herbicide amount 320 g/ha
Summary of the method: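 The compound, formulated as an emulsion and diluted with water to a predetermined rate, is applied uniformly to leaves of two-week-old seedlings growing in submerged alluvial soil at 25–30 °C. Rice is included. Each plant is assessed 3 weeks later using defined criteria.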

Setaria viridis = experiment: Test Example 5: herbicidal effect by foliage application, plastic box (symbol G); conditions: 320 g/ha, 3 weeks after application
Summary of the method: as §3

Amaranthus retroflexus = experiment: Test Example 4: herbicidal effect by soil treatment (symbol N); conditions: for N (Amaranthus retroflexus) herbicidal effect grade: application herbicide amount 320 g/ha
Summary of the method: as §1

Chenopodium album = experiment: Test Example 5: herbicidal effect by foliage application, plastic box (symbol O); conditions: 320 g/ha, 3 weeks after application
Summary of the method: as §3

| SMILES | effect on crop b (directly sowed rice plant), grade 0-5 [1] | P (Stellaria media) herbicidal effect grade (Stellaria media) | d: soybean, effect on crop grade (soybean) | J (Alopecurus myosuroides) herbicidal effect grade (Alopecurus myosuroides) | H: Echinochloa crus-galli var. crus-galli, herbicidal effect grade [2] | Herbicidal effect grade, C: Monochoria vaginalis (Monochoria vaginalis) | L (Apera spica-venti) herbicidal effect grade (Apera spica-venti) | M: Abutilon theophrasti, herbicidal effect grade (Abutilon theophrasti) | c (corn) effect on crop grade (corn) | e: wheat, effect on crop grade (wheat) | K (Lolium multiflorum Lam.) herbicidal effect grade (Lolium multiflorum Lam.) | herbicidal effect on H (Echinochloa crus-galli var. crus-galli), grade 0-5 [3] | G: Setaria viridis, herbicidal effect grade (Setaria viridis) | N (Amaranthus retroflexus) herbicidal effect grade (Amaranthus retroflexus) | d: soybean, effect on crop (criteria 0-5) (soybean) | H: Echinochloa crus-galli var. crus-galli, herbicidal effect (criteria 0-5) [2] | M: Abutilon theophrasti, herbicidal effect (criteria 0-5) (Abutilon theophrasti) | e: wheat, effect on crop (criteria 0-5) (wheat) | G: Setaria viridis, herbicidal effect (criteria 0-5) (Setaria viridis) | R: Veronica persica, herbicidal effect (criteria 0-5) (Veronica persica) | also measured |
| --- | --- | --- | --- | --- | --- | --- | --- | --- | --- | --- | --- | --- | --- | --- | --- | --- | --- | --- | --- | --- | --- |
| CCCCCCCCC(=O)OC1=C(c2c(C)cc(C)cc2C)C(=O)C(CC(C)=NOC)C1 (centres unmarked) [1-033] | 5 (Herbicidal ratio of 90% or more (almost completely withered)) | 0 (Herbicidal ratio of 5% or lower (almost no effect)) | 4 (Herbicidal ratio of 70% or higher and lower than 90%) | 5 (Herbicidal ratio of 90% or more (almost completely withered)) | 5 (Herbicidal ratio of 90% or more (almost completely withered)) | 1 (Herbicidal ratio of 5% or higher and lower than 20%) | 5 (Herbicidal ratio of 90% or more (almost completely withered)) | 4 (Herbicidal ratio of 70% or higher and lower than 90%) | 4 (Herbicidal ratio of 70% or higher and lower than 90%) | 5 (Herbicidal ratio of 90% or more (almost completely withered)) | 5 (Herbicidal ratio of 90% or more (almost completely withered)) | 5 (Herbicidal ratio of 90% or more (almost completely withered)) | 5 (Herbicidal ratio of 90% or more (almost completely withered)) | 5 (Herbicidal ratio of 90% or more (almost completely withered)) | – | – | – | – | – | – | R: Veronica persica, herbicidal effect grade (Veronica persica): 2 (Herbicidal ratio of 20% or higher and lower than 40%) |
| CC(CC1CC(O)=C(c2c(C)cc(C)cc2C)C1=O)=NO (centres unmarked) [1-058] | 5 (Herbicidal ratio of 90% or more (almost completely withered)) | 0 (Herbicidal ratio of 5% or lower (almost no effect)) | 3 (Herbicidal ratio of 40% or higher and lower than 70%) | 5 (Herbicidal ratio of 90% or more (almost completely withered)) | 5 (Herbicidal ratio of 90% or more (almost completely withered)) | 0 (Herbicidal ratio of 5% or lower (almost no effect)) | 4 (Herbicidal ratio of 70% or higher and lower than 90%) | 4 (Herbicidal ratio of 70% or higher and lower than 90%) | 4 (Herbicidal ratio of 70% or higher and lower than 90%) | 5 (Herbicidal ratio of 90% or more (almost completely withered)) | 5 (Herbicidal ratio of 90% or more (almost completely withered)) | 5 (Herbicidal ratio of 90% or more (almost completely withered)) | 5 (Herbicidal ratio of 90% or more (almost completely withered)) | 2 (Herbicidal ratio of 20% or higher and lower than 40%) | – | – | – | – | – | – | O: Chenopodium album, herbicidal effect grade (Chenopodium album): 0 (Herbicidal ratio of 5% or lower (almost no effect)) |
| CON=C(C)CC1CC(OC(=O)COc2cccc(C#N)c2)=C(c2c(C)cc(C)cc2C)C1=O (centres unmarked) [1-074] | 5 (Herbicidal ratio of 90% or more (almost completely withered)) | 0 (Herbicidal ratio of 5% or lower (almost no effect)) | – | 5 (Herbicidal ratio of 90% or more (almost completely withered)) | – | 4 (Herbicidal ratio of 70% or higher and lower than 90%) | 5 (Herbicidal ratio of 90% or more (almost completely withered)) | – | 4 (Herbicidal ratio of 70% or higher and lower than 90%) | – | 5 (Herbicidal ratio of 90% or more (almost completely withered)) | 5 (Herbicidal ratio of 90% or more (almost completely withered)) | – | 5 (Herbicidal ratio of 90% or more (almost completely withered)) | 4 (Herbicidal ratio of 70% or higher and lower than 90%) | 5 (Herbicidal ratio of 90% or more (almost completely withered)) | 3 (Herbicidal ratio of 40% or higher and lower than 70%) | 5 (Herbicidal ratio of 90% or more (almost completely withered)) | 5 (Herbicidal ratio of 90% or more (almost completely withered)) | – | O: Chenopodium album, herbicidal effect (criteria 0-5) (Chenopodium album): 2 (Herbicidal ratio of 20% or higher and lower than 40%) |
| CON=C(C)CC1CC(OC(=O)COc2ccc(Cl)cc2Cl)=C(c2c(C)cc(C)cc2C)C1=O (centres unmarked) [1-075] | 5 (Herbicidal ratio of 90% or more (almost completely withered)) | 0 (Herbicidal ratio of 5% or lower (almost no effect)) | – | 5 (Herbicidal ratio of 90% or more (almost completely withered)) | – | – | 5 (Herbicidal ratio of 90% or more (almost completely withered)) | – | 5 (Herbicidal ratio of 90% or more (almost completely withered)) | – | 5 (Herbicidal ratio of 90% or more (almost completely withered)) | 5 (Herbicidal ratio of 90% or more (almost completely withered)) | – | 5 (Herbicidal ratio of 90% or more (almost completely withered)) | 1 (Herbicidal ratio of 5% or higher and lower than 20%) | 5 (Herbicidal ratio of 90% or more (almost completely withered)) | 4 (Herbicidal ratio of 70% or higher and lower than 90%) | 5 (Herbicidal ratio of 90% or more (almost completely withered)) | 5 (Herbicidal ratio of 90% or more (almost completely withered)) | 0 (Herbicidal ratio of 5% or lower (almost no effect)) | – |
| CON=C(CC1CC(O)=C(c2c(C)cc(C)cc2C)C1=O)C1CCCC1 (centres unmarked) [1-078] | 5 (Herbicidal ratio of 90% or more (almost completely withered)) | – | – | – | – | 0 (Herbicidal ratio of 5% or lower (almost no effect)) | – | – | – | – | – | 5 (Herbicidal ratio of 90% or more (almost completely withered)) | – | – | 0 (Herbicidal ratio of 5% or lower (almost no effect)) | 5 (Herbicidal ratio of 90% or more (almost completely withered)) | 0 (Herbicidal ratio of 5% or lower (almost no effect)) | 0 (Herbicidal ratio of 5% or lower (almost no effect)) | 5 (Herbicidal ratio of 90% or more (almost completely withered)) | 0 (Herbicidal ratio of 5% or lower (almost no effect)) | P: Stellaria media, herbicidal effect grade (Stellaria media; 320 g/ha): 0 (Herbicidal ratio of 5% or lower (almost no effect)); J: Alopecurus myosuroides, herbicidal effect grade (Alopecurus myosuroides; 320 g/ha): 3 (Herbicidal ratio of 40% or higher and lower than 70%); L: Apera spica-venti, herbicidal effect grade (Apera spica-venti; 320 g/ha): 4 (Herbicidal ratio of 70% or higher and lower than 90%); c: corn, effect grade on crop (corn; 320 g/ha): 4 (Herbicidal ratio of 70% or higher and lower than 90%); K: Lolium multiflorum Lam., herbicidal effect grade (Lolium multiflorum Lam.; 320 g/ha): 5 (Herbicidal ratio of 90% or more (almost completely withered)); N: Amaranthus retroflexus, herbicidal effect grade (Amaranthus retroflexus; 320 g/ha): 0 (Herbicidal ratio of 5% or lower (almost no effect)) |
